Results reported in PubChem BioAssay AID1845203 (Molecular Pharmacology Branch, DTP, NCI, 2023).

Tested on: G-401 tumor spheroids, viability % test/control
Assay: Anticancer human tumor G-401 cell line growth inhibition;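 also: spheroids exposed to compound for 7 days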;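 as to viability, T/C: 100% = DMSO vehicle-treated spheroids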
Conditions: spheroids with HUVEC and MSC; for viability, T/C: stronger effect = lower value
Summary of the method: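 Single agents and combinations were tested on spheroids built from tumor cells plus HUVEC and hMSC, at half-log dilutions starting at or near clinical Cmax, else 10 microM; final DMSO 0.25% (v/v).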

## O=C(c1cc(Cc2n[nH]c(=O)c3ccccc23)ccc1F)N1CCN(C(=O)C2CC2)CC1 + CC[C@@]1(O)C(=O)OCc2c1cc1n(c2=O)Cc2cc3c(CN(C)C)c(O)ccc3nc2-1
Curve of first compound, second compound 0.003 µM
  IC50: 991 nM
Curve of first compound, second compound 0.00949 µM
  IC50: < 94.9 nM
Curve of first compound, second compound 0.03 µM
  IC50: < 94.9 nM
Curve of first compound, second compound 0.0949 µM
  IC50: < 94.9 nM
Curve of first compound, second compound 0.3 µM
  IC50: < 94.9 nM
Second compound 0.003 µM, first compound 0.0949 µM
  viability, T/C: 49.4%
Second compound 0.003 µM, first compound 0.3 µM
  viability, T/C: 51.8%
Second compound 0.003 µM, first compound 0.949 µM
  viability, T/C: 52.1%
Second compound 0.003 µM, first compound 3 µM
  viability, T/C: 43.9%
Second compound 0.003 µM, first compound 9.49 µM
  viability, T/C: 28.3%
Second compound 0.003 µM, first compound 30 µM
  viability, T/C: 13.6%
Second compound 0.00949 µM, first compound 0.0949 µM
  viability, T/C: 18.2%
Second compound 0.00949 µM, first compound 0.3 µM
  viability, T/C: 19.1%
Second compound 0.00949 µM, first compound 0.949 µM
  viability, T/C: 24%
Second compound 0.00949 µM, first compound 3 µM
  viability, T/C: 18.4%
Second compound 0.00949 µM, first compound 9.49 µM
  viability, T/C: 17.2%
Second compound 0.00949 µM, first compound 30 µM
  viability, T/C: 12.4%
Second compound 0.03 µM, first compound 0.0949 µM
  viability, T/C: 9.43%
Second compound 0.03 µM, first compound 0.3 µM
  viability, T/C: 10.1%
Second compound 0.03 µM, first compound 0.949 µM
  viability, T/C: 10.1%
Second compound 0.03 µM, first compound 3 µM
  viability, T/C: 9.87%
Second compound 0.03 µM, first compound 9.49 µM
  viability, T/C: 9.41%
Second compound 0.03 µM, first compound 30 µM
  viability, T/C: 9.05%
Second compound 0.0949 µM, first compound 0.0949 µM
  viability, T/C: 7.02%
Second compound 0.0949 µM, first compound 0.3 µM
  viability, T/C: 6.74%
Second compound 0.0949 µM, first compound 0.949 µM
  viability, T/C: 7.7%
Second compound 0.0949 µM, first compound 3 µM
  viability, T/C: 7.1%
Second compound 0.0949 µM, first compound 9.49 µM
  viability, T/C: 6.71%
Second compound 0.0949 µM, first compound 30 µM
  viability, T/C: 7.06%
Second compound 0.3 µM, first compound 0.0949 µM
  viability, T/C: 4.94%
Second compound 0.3 µM, first compound 0.3 µM
  viability, T/C: 5.39%
Second compound 0.3 µM, first compound 0.949 µM
  viability, T/C: 5.37%
Second compound 0.3 µM, first compound 3 µM
  viability, T/C: 6.35%
Second compound 0.3 µM, first compound 9.49 µM
  viability, T/C: 5.22%
Second compound 0.3 µM, first compound 30 µM
  viability, T/C: 6.07%

## COc1cc2c(cc1O)CCNC21CSC2c3c(OC(C)=O)c(C)c4c(c3C(COC1=O)N1C(O)C3Cc5cc(C)c(OC)c(O)c5C(C21)N3C)OCO4 (stereo not given)
Compound 30 pM
  viability, T/C: 99.4% [middle of 10 runs]
Compound 0.0003 µM
  viability, T/C: 38.9% [middle of 10 runs]
Compound 0.000949 µM
  viability, T/C: 7.91% [middle of 10 runs]
Compound 0.003 µM
  viability, T/C: 0.12% [middle of 5 runs]
Compound alone, run of 12/12/2019
  IC50: 0.233 nM [middle of 10 runs]

## COc1ccc([C@@H](O)c2cc(-c3ncnc4cc(N5CCOCC5)ccc34)c(F)cc2Cl)nn1 + Cn1nnc2c(C(N)=O)ncn2c1=O
Curve of first compound, second compound 1 µM
  IC50: 1350 nM
Curve of first compound, second compound 3.16 µM
  IC50: 932 nM
Curve of first compound, second compound 10 µM
  IC50: 1260 nM
Curve of first compound, second compound 31.6 µM
  IC50: 1130 nM
Curve of first compound, second compound 100 µM
  IC50: 1020 nM
Second compound 1 µM, first compound 0.0316 µM
  viability, T/C: 103%
Second compound 1 µM, first compound 0.1 µM
  viability, T/C: 95.7%
Second compound 1 µM, first compound 0.316 µM
  viability, T/C: 88.1%
Second compound 1 µM, first compound 1 µM
  viability, T/C: 60.9%
Second compound 1 µM, first compound 3.16 µM
  viability, T/C: 21.9%
Second compound 1 µM, first compound 10 µM
  viability, T/C: 9.93%
Second compound 3.16 µM, first compound 0.0316 µM
  viability, T/C: 96.6%
Second compound 3.16 µM, first compound 0.1 µM
  viability, T/C: 90.8%
Second compound 3.16 µM, first compound 0.316 µM
  viability, T/C: 91.4%
Second compound 3.16 µM, first compound 1 µM
  viability, T/C: 46.3%
Second compound 3.16 µM, first compound 3.16 µM
  viability, T/C: 20.6%
Second compound 3.16 µM, first compound 10 µM
  viability, T/C: 10.6%
Second compound 10 µM, first compound 0.0316 µM
  viability, T/C: 105%
Second compound 10 µM, first compound 0.1 µM
  viability, T/C: 96.1%
Second compound 10 µM, first compound 0.316 µM
  viability, T/C: 90%
Second compound 10 µM, first compound 1 µM
  viability, T/C: 57.8%
Second compound 10 µM, first compound 3.16 µM
  viability, T/C: 20.9%
Second compound 10 µM, first compound 10 µM
  viability, T/C: 10.8%
Second compound 31.6 µM, first compound 0.0316 µM
  viability, T/C: 90.9%
Second compound 31.6 µM, first compound 0.1 µM
  viability, T/C: 88.8%
Second compound 31.6 µM, first compound 0.316 µM
  viability, T/C: 85.1%
Second compound 31.6 µM, first compound 1 µM
  viability, T/C: 52%
Second compound 31.6 µM, first compound 3.16 µM
  viability, T/C: 22.5%
Second compound 31.6 µM, first compound 10 µM
  viability, T/C: 10.8%
Second compound 100 µM, first compound 0.0316 µM
  viability, T/C: 89.5%
Second compound 100 µM, first compound 0.1 µM
  viability, T/C: 87.4%
Second compound 100 µM, first compound 0.316 µM
  viability, T/C: 82.9%
Second compound 100 µM, first compound 1 µM
  viability, T/C: 49.5%
Second compound 100 µM, first compound 3.16 µM
  viability, T/C: 19.1%
Second compound 100 µM, first compound 10 µM
  viability, T/C: 8.51%
